In ChEMBL document CHEMBL3507680, “University of Dundee, Gates Library screen for HepG2 cell viability”:

Experiment: Human HepG2 cell viability assay in 384 well format
Type: toxicity, cell-based
Design: dose 125 nL, time 70.5 hour; concentration not given beside the values
Conditions: HepG2 cells, read-out: Inhibition

SMILES | cytotoxicity at 70.5 h
N#Cc1cc(Cl)ccc1N1CCOC(C(N)=O)C1 (stereo not given) | -0.791%
CCN1CCN(CC(C)(O)c2cccc(C(F)(F)F)c2)CC1 (stereo not given) | -10.9%
CNC(=O)c1c(C)cccc1NCc1nnc(C2CC2)o1 | -2.15%
CC1CS(=O)(=O)CCN1Cc1ccccc1OCC(F)(F)F (stereo not given) | -6.75%
CC(C)CN1CCC(c2nnc(CN3CCCC3)n2C2CC2)CC1 | -6.17%
Cc1ccccc1C1(C(=O)NCCN2CCC(C)CC2)CCOCC1 | 17.6%
COC(=O)c1cccc(NC(=O)CN2CCN(S(C)(=O)=O)CC2)c1 | -9.51%
CN1CCCC[C@@H]2[C@H]1[C@@H](c1ccccc1)CCN2C(=O)c1cnccn1 | 1.76%
COC(=O)C(C)N(Cc1cc(C)on1)C1CC1 (stereo not given) | -5.22%
CCC1CN(CC(=O)NCCN2CCCCCC2)c2ccccc2S1 (stereo not given) | -1.59%
CC(Cc1ccccc1F)C(=O)Nc1cccc(OCC(N)=O)c1 (stereo not given) | -2.21%
Cc1nc(C)n(CCNC(=O)C(C)n2ccnc2C(C)C)n1 (stereo not given) | -0.492%
COc1ccc(CN2CCO[C@H]3CN(C(=O)C4CC4)CC[C@H]3C2=O)cc1 | -12%
Cc1nc2c(cc1C(=O)O)CCN(Cc1ccsc1)CC2 | -6.12%
Cc1nn(C)c(C)c1C1CCCN1Cc1cccc(OCC(N)=O)c1 (stereo not given) | -7.47%
O=C([C@H]1C[C@@H]2CCN(c3cccc(F)c3)C[C@H]2O1)N1CCCC1 | -14.2%
Cc1nc(C)n(CC2CCCN2Cc2cn3ccccc3c2C#N)n1 (stereo not given) | -6.14%
O=C(Nc1cc(F)ccc1OCC1CCCO1)c1ccc(O)nc1 (stereo not given) | -6.69%
Cc1nc(CN2CCCN(C(=O)c3ccn(C)c(=O)c3)CC2)cs1 | 30.7%
CCN(C)S(=O)(=O)N1CCCC1CC(=O)c1cccs1 (stereo not given) | 32.3%
O=C(NC1CC1)N1C[C@@H]2CCN(C(=O)c3cscn3)[C@@H]2C1 | 10.3%
CN(C)C(=O)C1CCCN(C(=O)c2ccccc2-n2cc(CN)cn2)C1 (stereo not given) | 48.5%
Cc1nc(O)cc(C2CCN(Cc3ccc(F)c(F)c3)C2)n1 (stereo not given) | -5.53%
CCc1nc(C2CCCN2CC(=O)Nc2nncs2)no1 (stereo not given) | -2.48%
O=C1OCCN1Cc1nc(C2(c3ccc(F)cc3)CCOC2)no1 (stereo not given) | -6.4%
CC(C)c1nc2c(n1C)CCN(CCc1ccccn1)C2 | -4.15%
O=C(c1cccnc1)N1CCCC2(CCN(c3ccsc3)C2=O)C1 (stereo not given) | 13.9%

SMILES | cytotoxicity at 70.5 h
CCc1ccc(CN2CCN(c3cccc(OC)c3)C(=O)C2)nc1 | -8.23%
CCC(C)N(CCOC)Cc1nc2c(cnn2C)c(=O)[nH]1 (stereo not given) | 17.1%
CN(Cc1ncc(-c2ccccc2)o1)CC1CCCN1c1cccnn1 (stereo not given) | -10.2%
CCn1c(NCC2CCCO2)nc2c(C)nn(C)c2c1=O (stereo not given) | -7.98%
Cc1cc(-n2cccn2)ccc1CN1C[C@@H](CN(C)C)[C@@H](CO)C1 | -8.41%
Nc1ncc(CN2C[C@H](C3CC3)[C@@H](N)C2)cn1 | -5.66%
Cc1cnc(N2CCc3c(c(COc4cncnc4)nn3C)C2)nc1 | -6.03%
COCCn1cc(C(=O)N2CCCC(n3cncn3)C2)ccc1=O (stereo not given) | 8.17%
CC(C)(C)c1nc(CN(Cc2cccs2)C2CCS(=O)(=O)C2)cs1 (stereo not given) | -2.81%
CC1CN(C(=O)CN(Cc2ccccc2Cl)C2CCCC2)CCO1 (stereo not given) | 6.53%
Cc1nn(C)c(C)c1C(=O)N1CCN(C(=O)CC2CCCCC2)CC1 | 11.5%
O=C(C1CNCCO1)N1CCCC(c2ccccc2)(c2ccccc2)C1 (stereo not given) | -0.462%
CCC(C)[C@H](N)c1nnc(SCC(=O)Nc2ccc(Br)cc2)o1 (stereo not given in full) | -13.2%
CCn1ncnc1CN1CCC(CNC(=O)c2cccnc2O)C1 (stereo not given) | -4.94%
Cc1cccn2c(CC(=O)N3CCC(CCn4cccn4)CC3)cnc12 | 13.1%
Cc1cc(NC(=O)NCC(O)c2ccc(F)c(F)c2)n(C)n1 (stereo not given) | 13.9%
C=C(C)COc1ccccc1NC(=O)NC1CCOCC1 | 2.28%
CN1CCCN(C(=O)c2ccnn2-c2ccc3ccccn23)CC1 | 12.9%
O=C(O)[C@@H]1CN(Cc2cc3c(cc2Cl)OCO3)C[C@H]1C1CC1 | -1.73%
Cc1nc(CCC(N)=O)cc(C2CCCN2S(C)(=O)=O)n1 (stereo not given) | 0.687%
CN(C)c1nccc(N2CCO[C@H]3CN(Cc4nccn4C)C[C@H]32)n1 | -0.595%
CC(C)CN1CCN(C(=O)c2[nH]nnc2Nc2ccccc2F)CC1 | 8.05%
Cc1ccc(C(O)CNC(=O)Nc2cc(C)nn2C)cc1 (stereo not given) | -3.09%
Cc1cc(C)c2c(N3CCN(C(=O)N(C)C)CC3)ncnc2n1 | -3.44%
CC(=O)N1CCC(N2CCOC[C@H]2c2nc(-c3ccccc3)c[nH]2)CC1 | -2.43%
O=C(CN1CCSC2(CCCCC2)C1)NCC(F)(F)F | -10.8%
O=C(CSCC1CC1)N1CCCN(c2ccc(F)cc2)CC1 | -7.69%

SMILES | cytotoxicity at 70.5 h
CCN1CCN(C(=O)C(C)N2CCc3cncnc3C2)CC1 (stereo not given) | -4.42%
CC(C)N1CCC(CC(=O)N2CCC(C(O)c3nccn3C)CC2)CC1 (stereo not given) | -3.4%
CCNC(=O)[C@@H]1CCCN1[C@@H](C(=O)NC)c1ccccc1OC | -8.29%
CCN1CCCC(c2nc(O)c3cc(C)ccc3n2)C1 (stereo not given) | -8.23%
Cc1cccc(CN2C[C@@H](C)[C@@]3(CCN(CC(=O)N(C)C)C3=O)C2)c1 | -10%
O=C(NCc1ccc2c(c1)OCO2)N1CCCC2(C1)OCCO2 | -7.83%
CCNC(=O)N1CCCCC1CCNS(C)(=O)=O (stereo not given) | -10.5%
Cc1ccc(NC2CCN(C(=O)c3c(C)noc3C)CC2)nn1 | -2.81%
COc1ccc(CN2CCc3sccc3C2C)cc1CN1CCOCC1 (stereo not given) | -0.0983%
Cc1nc2sccn2c1CNC1(c2ccccc2F)CCCC1 | -8.91%
CC(Cn1cncn1)NCCN1CCc2ccccc2C1 (stereo not given) | -6.48%
O=C(c1cccnc1)N1C[C@@H]2CC[C@H](C1)N(Cc1cc(F)ccc1F)C2 | -5.88%
CCNC(=O)[C@@H]1C[C@H](NC(=O)c2ccccc2C#N)CN1CCCSC | -2.96%
Cc1nn(C)c2cn(CC(=O)N3CCN(c4ccccn4)CC3)nc12 | 5.73%
CN1CCCc2cc(CNC(=O)c3ccncc3)ccc21 | 33.4%
O=C(NS(=O)(=O)c1ccc(Cl)cc1F)c1cccc2c1OCCO2 | -108%
Cc1cnn(CCNCc2cc(-c3ccccc3)no2)c1 | 7.59%
CCN(Cc1cccnc1)CC1(C)Cc2c(N)nc(N)nc2O1 (stereo not given) | -1.96%
CC(C)(C)S(=O)(=O)c1ccc(N2CCN(c3ccccn3)CC2)nn1 | -17.1%
COCCN1C[C@@H](C)[C@@]2(COCCN(C(=O)c3cnc(C)cn3)C2)C1 | -5.26%
Cc1noc(C)c1CNC(=O)N1CCC(C(O)c2ccccc2)CC1 (stereo not given) | -6%
O=C(NCc1ccco1)[C@@]12CCO[C@@H]1CCN(c1ncccn1)C2 | -2.22%
Cc1cccc(C(=O)N2CCn3cnc(COCC4CC4)c3C2)n1 | -2.97%
CN(C)C(=O)N1C[C@@H]2COC[C@]2(CNS(C)(=O)=O)C1 | -14.4%
CN(Cc1ccncc1)C1COC2(CCN(Cc3ccsc3)CC2)C1 (stereo not given) | -15.1%
COCC(=O)N1CCC2(CCCN(Cc3ccc(Cl)cc3)CC2)CC1 | 44.6%
